In ChEMBL document CHEMBL1821662 (Bioorg Med Chem Lett, 2011):

Tests used:
Aurora kinase A = biological target: T1, Aurora kinase A (Homo sapiens, UniProt O14965); test: Binding affinity to Aurora A kinase catalytic domain by competitive binding assay
T1 sequence (O14965 whole entry): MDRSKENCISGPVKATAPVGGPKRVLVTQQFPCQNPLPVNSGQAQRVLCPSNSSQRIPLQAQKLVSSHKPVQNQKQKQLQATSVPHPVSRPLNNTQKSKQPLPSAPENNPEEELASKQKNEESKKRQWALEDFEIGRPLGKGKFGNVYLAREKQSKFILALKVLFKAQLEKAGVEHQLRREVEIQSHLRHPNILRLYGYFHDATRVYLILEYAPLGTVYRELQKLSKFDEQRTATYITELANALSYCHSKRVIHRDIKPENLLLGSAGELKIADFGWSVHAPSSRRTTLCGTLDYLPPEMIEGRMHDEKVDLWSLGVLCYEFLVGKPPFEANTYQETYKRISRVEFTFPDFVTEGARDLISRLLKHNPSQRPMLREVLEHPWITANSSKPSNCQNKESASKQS

Aurora kinase B [1] = biological target: T2, Aurora kinase B (Homo sapiens, UniProt Q96GD4); test: Inhibition of Aurora B kinase assessed as reduction in histone H3 phosphorylation in human HCT116 cells; assay type: cell-based, HCT-116
T2 sequence (Q96GD4 whole entry, the tested form may be a part): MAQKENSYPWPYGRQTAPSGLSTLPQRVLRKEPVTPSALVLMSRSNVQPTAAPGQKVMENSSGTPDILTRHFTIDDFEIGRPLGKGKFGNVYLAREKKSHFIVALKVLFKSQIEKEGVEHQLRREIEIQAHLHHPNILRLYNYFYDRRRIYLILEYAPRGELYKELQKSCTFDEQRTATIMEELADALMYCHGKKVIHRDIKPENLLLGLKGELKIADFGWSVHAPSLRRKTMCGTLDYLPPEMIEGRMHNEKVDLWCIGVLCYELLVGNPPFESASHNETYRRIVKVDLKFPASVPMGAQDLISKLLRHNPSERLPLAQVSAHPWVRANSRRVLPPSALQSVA

Aurora kinase B [2] = biological target: T2, Aurora kinase B; test: Binding affinity to Aurora B kinase catalytic domain by competitive binding assay
HCT-116 [3] = test: Antiproliferative activity against human HCT116 cells; assay type: functional, cell-based
Aurora kinase C = biological target: T3, Aurora kinase C (Homo sapiens, UniProt Q9UQB9); test: Binding affinity to Aurora C kinase catalytic domain by competitive binding assay
T3 sequence (Q9UQB9 whole entry): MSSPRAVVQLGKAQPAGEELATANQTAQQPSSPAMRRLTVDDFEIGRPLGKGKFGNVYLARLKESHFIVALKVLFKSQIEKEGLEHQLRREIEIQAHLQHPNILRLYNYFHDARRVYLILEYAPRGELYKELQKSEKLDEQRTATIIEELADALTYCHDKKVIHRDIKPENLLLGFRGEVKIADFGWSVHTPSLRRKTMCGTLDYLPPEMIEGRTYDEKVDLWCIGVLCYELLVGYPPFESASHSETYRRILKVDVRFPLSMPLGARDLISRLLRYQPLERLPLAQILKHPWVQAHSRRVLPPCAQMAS

[4] = AUC in Sprague-Dawley rat at 1 mg/kg, iv; assay type: ADME, organism-based; set-up: dose 1 mg/kg, route intravenous; conditions: plasma
[5] = Half life in Sprague-Dawley rat at 1 mg/kg, iv; assay type: ADME, organism-based; set-up: dose 1 mg/kg, route intravenous; conditions: in vivo
[6] = Volume of distribution in Sprague-Dawley rat at 1 mg/kg, iv; assay type: ADME, organism-based; set-up: dose 1 mg/kg, route intravenous; conditions: in vivo
[7] = Clearance in Sprague-Dawley rat at 1 mg/kg, iv; assay type: ADME, organism-based; set-up: dose 1 mg/kg, route intravenous; conditions: in vivo
HCT-116 [8] = test: Antitumor activity against human HCT116 cells xenografted in nude mouse assessed as tumor suppression dose administered intraperitoneally twice daily; assay type: functional, cell-based
Mus musculus = test: Toxicity in nude mouse xenografted with human HCT116 cells assessed as body weight loss at 37.5 mg/kg, ip BID for 8 days; assay type: organism-based, HCT-116; set-up: dose 37.5 mg/kg, route intraperitoneal; conditions: in vivo, 192 h
[9] = AUC in SCID mouse at 60 mg/kg, ip; assay type: ADME, organism-based; set-up: dose 60 mg/kg, route intraperitoneal; conditions: plasma

SMILES	Kd (Aurora kinase A) [nM]	IC50 (Aurora kinase B [1]) [nM]	Kd (Aurora kinase B [2]) [nM]	IC50 (HCT-116 [3]) [nM]	Kd (Aurora kinase C) [nM]	AUC [4] [µM·h]	half-life [5] [h]	Vd [6] [L/kg]	clearance [7] [mL/min/kg]	Activity (HCT-116 [8])	Activity (Mus musculus) [%]	AUC [9] [µM·h]
Cc1cc(Nc2nc(Sc3ccc(NC(=O)CN4C[C@H](OC(C)(C)C(F)(F)F)[C@@H](O)C4)cc3)nn3cccc23)n[nH]1	6	27	4	9	–	–	–	–	–	–	–	–
Cc1cc(Nc2nc(Sc3ccc(NC(=O)C4CC4)cc3)nn3cc(NC(=O)CCN4CCCCC4)cc23)n[nH]1	38	850	37	101	10	–	–	–	–	–	–	–
Cc1cc(Nc2nc(Sc3ccc(NC(=O)CN4C[C@H](Oc5ccc(F)cc5)C[C@H]4CO)cc3)nn3cccc23)n[nH]1	53	78	21	24	–	–	–	–	–	–	–	–
CCC(C)(C)O[C@H]1CN(CC(=O)Nc2ccc(Sc3nc(Nc4cc(C)[nH]n4)c4cccn4n3)cc2)C[C@@H]1O	8	28	4	9	–	–	–	–	–	–	–	–
Cc1cc(Nc2nc(Sc3ccc(NC(=O)C4CC4)cc3)nn3cc(NC(=O)N4CCN(C)CC4)cc23)n[nH]1	7	190	4	75	5	0.757	8.66	5.86	53.3	–	–	–
Cc1cc(Nc2nc(Sc3ccc(NC(=O)CN4C[C@H](O)C[C@H]4CO)cc3)nn3cccc23)n[nH]1	58	637	15	596	–	–	–	–	–	–	–	–
Cc1cc(Nc2nc(Sc3ccc(NC(=O)CN4CC(=NO)[C@@H](OC(C)(C)C)C4)cc3)nn3cccc23)n[nH]1 (mixture of isomers)	9	28	5	8	–	–	–	–	–	–	–	–
Cc1cc(Nc2nc(Sc3ccc(NC(=O)CN4C[C@H](Oc5ccccc5F)[C@@H](O)C4)cc3)nn3cccc23)n[nH]1	10	28	9	4	–	–	–	–	–	–	–	–
Cc1cc(Nc2nc(Sc3ccc(NC(=O)CN4C[C@H](OCC5CC5)[C@@H](O)C4)cc3)nn3cccc23)n[nH]1	7	23	2	10	–	–	–	–	–	–	–	–
Cc1cc(Nc2nc(Sc3ccc(NC(=O)CN4C[C@H](Oc5cccc(F)c5)[C@@H](O)C4)cc3)nn3cccc23)n[nH]1	17	51	10	7	–	–	–	–	–	–	–	–
Cc1cc(Nc2nc(Sc3ccc(NC(=O)CN4C[C@@H](O)[C@@H](Oc5ccc(F)cc5)C4)cc3)nn3cccc23)n[nH]1	7	84	8	9	–	–	–	–	–	–	–	–
Cc1cc(Nc2nc(Sc3ccc(NC(=O)CN4C[C@H](Oc5cc(F)cc(F)c5)[C@@H](O)C4)cc3)nn3cccc23)n[nH]1	26	51	21	7	–	–	–	–	–	–	–	–
Cc1cc(Nc2nc(Sc3ccc(NC(=O)CN4C[C@H](OC(C)(C)C)C[C@@H]4CO)cc3)nn3cccc23)n[nH]1	301	2490	69	2390	–	–	–	–	–	–	–	–
Cc1cc(Nc2nc(Sc3ccc(NC(=O)CN4C[C@H](OC(C)C)[C@@H](O)C4)cc3)nn3cccc23)n[nH]1	8	23	4	10	–	–	–	–	–	–	–	–
Cc1cc(Nc2nc(Sc3ccc(NC(=O)C4CC4)cc3)nn3cc(NC(=O)CN4CCOCC4)cc23)n[nH]1	7	420	9	160	3	–	–	–	–	–	–	–
Cc1cc(Nc2nc(Sc3ccc(NC(=O)CN4CCC[C@H]4CO)cc3)nn3cccc23)n[nH]1	14	146	4	148	1	–	–	–	–	–	–	–
Cc1cc(Nc2cc(N3CCN(C)CC3)nc(Sc3ccc(NC(=O)C4CC4)cc3)n2)n[nH]1 [TOZASERTIB]	–	–	–	28	–	–	–	–	–	–	–	–
Cc1cc(Nc2nc(Sc3ccc(NC(=O)CN4C[C@H](O)[C@@H](F)C4)cc3)nn3cccc23)n[nH]1	5	47	1	33	–	–	–	–	–	–	–	–
Cc1cc(Nc2nc(Sc3ccc(NC(=O)CN4CC(F)(F)C[C@H]4CO)cc3)nn3cccc23)n[nH]1	8	29	5	25	2	–	–	–	–	–	–	–

SMILES	Kd (Aurora kinase A) [nM]	IC50 (Aurora kinase B [1]) [nM]	Kd (Aurora kinase B [2]) [nM]	IC50 (HCT-116 [3]) [nM]	Kd (Aurora kinase C) [nM]	AUC [4] [µM·h]	half-life [5] [h]	Vd [6] [L/kg]	clearance [7] [mL/min/kg]	Activity (HCT-116 [8])	Activity (Mus musculus) [%]	AUC [9] [µM·h]
COCCO[C@H]1CN(CC(=O)Nc2ccc(Sc3nc(Nc4cc(C)[nH]n4)c4cccn4n3)cc2)C[C@@H]1O	–	49	2	25	–	–	–	–	–	–	–	–
Cc1cc(Nc2nc(Sc3ccc(NC(=O)CN4C[C@H](OC5CCCC5)[C@@H](O)C4)cc3)nn3cccc23)n[nH]1	11	23	4	6	–	–	–	–	–	–	–	–
Cc1cc(Nc2nc(Sc3ccc(NC(=O)CN4C[C@H](SC(C)(C)C)C[C@H]4CO)cc3)nn3cccc23)n[nH]1	111	1790	39	1610	–	–	–	–	–	–	–	–
Cc1cc(Nc2nc(Sc3ccc(NC(=O)C4CC4)cc3)nn3cc(NC(=O)CN4CCC[C@@H]4CO)cc23)n[nH]1	10	6300	16	536	80	–	–	–	–	–	–	–
Cc1cc(Nc2nc(Sc3ccc(NC(=O)CNC4CCCC4)cc3)nn3cccc23)n[nH]1	143	655	42	365	14	–	–	–	–	–	–	–
Cc1cc(Nc2nc(Sc3ccc(NC(=O)C4CC4)cc3)nn3cc(NC(=O)CN4CCCC4)cc23)n[nH]1	23	828	49	536	13	–	–	–	–	–	–	–
Cc1cc(Nc2nc(Sc3ccc(NC(=O)CN4C[C@H](Oc5ccc(F)cc5)[C@@H](O)C4)cc3)nn3cccc23)n[nH]1	15	44	8	5	–	1.17	3.36	2.93	25.2	Dose-dependent effect	> 20	47.5
Cc1cc(Nc2nc(Sc3ccc(NC(=O)CN4C[C@H](Oc5ccc(F)cc5F)[C@@H](O)C4)cc3)nn3cccc23)n[nH]1	13	58	17	5	–	–	–	–	–	–	–	–
Cc1cc(Nc2nc(Sc3ccc(NC(=O)C4CC4)cc3)nn3cccc23)n[nH]1	12	431	20	345	4	2.34	10.8	2.15	28.5	–	–	–
Cc1cc(Nc2nc(Sc3ccc(NC(=O)CN4C[C@H](OC(C)(C)C)C[C@H]4CO)cc3)nn3cccc23)n[nH]1	9	15	8	8	2	0.581	15.4	9.77	52.2	–	–	–
Cc1cc(Nc2nc(Sc3ccc(NC(=O)CN4C[C@H](N)C[C@H]4CO)cc3)nn3cccc23)n[nH]1	381	15000	144	4700	–	–	–	–	–	–	–	–
Cc1cc(Nc2nc(Sc3ccc(NC(=O)CN4C[C@@H](F)C[C@H]4CO)cc3)nn3cccc23)n[nH]1	8	28	4	25	–	–	–	–	–	–	–	–
Cc1cc(Nc2nc(Sc3ccc(NC(=O)CN4C[C@H]5C[C@H]5[C@H]4CO)cc3)nn3cccc23)n[nH]1	17	179	15	203	–	–	–	–	–	–	–	–
Cc1cc(Nc2nc(Sc3ccc(NC(=O)CN4C[C@H](F)C[C@H]4CO)cc3)nn3cccc23)n[nH]1	15	91	9	104	–	–	–	–	–	–	–	–
Cc1cc(Nc2nc(Sc3ccc(NC(=O)CN4C[C@H](OC(C)(C)C)[C@@H](O)C4)cc3)nn3cccc23)n[nH]1	12	16	5	4	–	0.644	11.2	18.3	45	–	–	–
Cc1cc(Nc2nc(Sc3ccc(NC(=O)CN4CCOCC4)cc3)nn3cccc23)n[nH]1	85	1830	41	1840	17	–	–	–	–	–	–	–
Cc1cc(Nc2nc(Sc3ccc(NC(=O)CNC4CC4)cc3)nn3cccc23)n[nH]1	32	288	41	364	6	–	–	–	–	–	–	–
Cc1cc(Nc2nc(Sc3ccc(NC(=O)CN(C)C)cc3)nn3cccc23)n[nH]1	31	293	8	370	5	–	–	–	–	–	–	–
